These results are taken from publication PMC11420878, “Labeling of CC Chemokine Receptor 2 with a Versatile Intracellular Allosteric Probe” (ACS Chemical Biology, 2024).

Type in all cases: binding
For assay [1], the target named is T1, CC chemokine receptor 2 (CCR2) (Homo sapiens, UniProt P41597). Put plainly: [3H]CCR2-RA-[R] displacement, […] h preincubation. Also noted: CCR2 stably expressed in U2OS membranes.
In assay [2] the target is T1, CC chemokine receptor 2 (CCR2). As to the kind of experiment: [3H]CCR2-RA-[R] displacement (Ki shift), in-gel fluorescence labeling, pull-down proteomics. Also noted: CCR2 stably expressed in U2OS membranes; HA-CCR2 in HEK293T membranes.
For assay [3] the target is unchanged. As to the kind of experiment: [3H]CCR2-RA-[R] displacement, […] h preincubation; in-gel fluorescence labeling. Set-up: CCR2 stably expressed in U2OS membranes; HA-CCR2 in HEK293T membranes.

T1 sequence (P41597 whole entry): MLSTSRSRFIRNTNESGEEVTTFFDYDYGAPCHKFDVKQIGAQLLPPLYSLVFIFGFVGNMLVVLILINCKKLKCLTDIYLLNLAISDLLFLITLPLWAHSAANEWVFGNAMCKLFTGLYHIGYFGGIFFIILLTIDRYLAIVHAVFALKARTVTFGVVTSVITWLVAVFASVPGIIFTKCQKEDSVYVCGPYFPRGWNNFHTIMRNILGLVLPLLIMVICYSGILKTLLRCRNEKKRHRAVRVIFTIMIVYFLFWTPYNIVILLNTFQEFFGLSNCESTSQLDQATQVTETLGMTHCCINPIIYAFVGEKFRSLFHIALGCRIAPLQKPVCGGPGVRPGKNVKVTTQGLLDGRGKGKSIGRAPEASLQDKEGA

Usually Ki stands for the equilibrium dissociation constant of an inhibitor or competing ligand from its target. Take `C#CCOc1cc(NC(=O)CCSC#N)ccc1Oc1ccc(Cl)cc1NS(=O)(=O)c1ccc(Cl)c(C(F)(F)F)c1` [8a]: the Ki in assay [1] is ~1.3 nM. For the molecule `C#CCOCCOCCOc1cc(NC(=O)C=C)ccc1Oc1ccc(Cl)cc1NS(=O)(=O)c1ccc(Cl)c(C(F)(F)F)c1` [6c, probe 6c], the Ki in assay [2] is ~0.5 nM.

As to `C#CCOCCOc1cc(NC(=O)CCSC#N)ccc1Oc1ccc(Cl)cc1NS(=O)(=O)c1ccc(Cl)c(C(F)(F)F)c1` [8b], the Ki in assay [1] is ~1.3 nM. On to `C#CCOCCOCCOc1cc(NC(=O)CCSC#N)ccc1Oc1ccc(Cl)cc1NS(=O)(=O)c1ccc(Cl)c(C(F)(F)F)c1` [8c], for which, in assay [1], the inhibitory constant (Ki) was ~1.3 nM.

Turning to `C#CCOCCOc1cc(NC(=O)C=C)ccc1Oc1ccc(Cl)cc1NS(=O)(=O)c1ccc(Cl)c(C(F)(F)F)c1` [6b], the Ki in assay [3] is ~0.5 nM. Regarding `C#CCOc1cc(NC(=O)C=C)ccc1Oc1ccc(Cl)cc1NS(=O)(=O)c1ccc(Cl)c(C(F)(F)F)c1` [6a], the Ki in assay [3] is ~0.5 nM.
